Laboratory results published in ChEMBL document CHEMBL5036314, “Structure-Guided Design of the First Noncovalent Small-Molecule Inhibitor of CRM1” (J Med Chem, 2021).
The source made the active and inactive calls. The rule behind the calls is not given here.

Assays:
[1] = target: Exportin-1 (Saccharomyces cerevisiae) (UniProt P30822); assay: Inhibition of GST-NES MVM binding to yeast CRM1 at 20 uM by pull down assay
[2] = system: HeLa; assay: Anti-cancer activity against human HeLa cells assessed as cell viability at 20 uM incubated for 2 hrs by EdU incorporation based assay; assay type: functional
[3] = system: Saccharomyces cerevisiae; assay: Inhibition of NES binding to yeast CRM1-T539 mutant in absence of RanGTP at 20 uM by pull down assay
[4] = system: HeLa; assay: Inhibition of cellular nuclear export in human HeLa cells transfected with hCRM1-C528T/K568A dual mutant at 10 uM incubated for 72 hrs replaced with compound containing fresh culture medium every 12 hrs by Sulforhodamine B assay; assay type: functional, cell-based
[5] = system: A2780; assay: Induction of apoptosis in human A2780 cells assessed as necrotic cells at 10 uM replaced with compound containing fresh culture medium every 12 hrs measured for 72 hrs by Annexin V FITC/propidium iodide staining based flow cytometric analysis (reference value: 1%); assay type: functional
[6] = system: HeLa; assay: Anti-cancer activity against human HeLa cells transfected with hCRM1-C528T/K568A dual mutant assessed as measuring cell survival at 10 uM for 72 hrs replaced with compound containing fresh culture medium every 12 hrs by Sulforhodamine B assay; assay type: functional, cell-based
[7] = system: A2780; assay: Induction of apoptosis in human A2780 cells assessed as necrotic cells at 5 uM replaced with compound containing fresh culture medium every 12 hrs measured for 72 hrs by Annexin V FITC/propidium iodide staining based flow cytometric analysis (reference value: 1%); assay type: functional
[8] = system: SW48; assay: Anti-cancer activity against human SW48 cells assessed as cell survival at 10 uM for 72 hrs replaced with compound containing fresh culture medium every 12 hrs by Sulforhodamine B assay; assay type: functional, cell-based
[9] = system: HeLa; assay: Anti-cancer activity against human HeLa cells assessed as inhibition of DNA synthesis at 1 to 10 uM incubated for 2 hrs by EdU incorporation based assay; assay type: functional, cell-based; conditions: dose 1-10 µM
[10] = system: A2780; assay: Anti-cancer activity against human A2780 cells assessed as cell survival at 10 uM for 72 hrs replaced with compound containing fresh culture medium every 12 hrs by Sulforhodamine B assay; assay type: functional, cell-based
[11] = system: A549; assay: Anti-cancer activity against human A549 cells assessed as inhibition of DNA synthesis incubated for 2 hrs by EdU incorporation based assay; assay type: functional, cell-based; conditions: dose 1-10 µM
[12] = system: HeLa; assay: Inhibition of cellular nuclear export in human HeLa cells transfected with hCRM1- C528T/F572Y dual mutant at 10 uM incubated for 72 hrs replaced with compound containing fresh culture medium every 12 hrs by Sulforhodamine B assay; assay type: functional, cell-based
[13] = system: HeLa; assay: Anti-cancer activity against human HeLa cells assessed as cell survival at 10 uM for 72 hrs replaced with compound containing fresh culture medium every 12 hrs by Sulforhodamine B assay; assay type: functional, cell-based
[14] = system: HepG2; assay: Anti-cancer activity against human HepG2 cells assessed as cell survival at 10 uM for 72 hrs replaced with compound containing fresh culture medium every 12 hrs by Sulforhodamine B assay; assay type: functional, cell-based
[15] = system: A2780; assay: Induction of apoptosis in human A2780 cells assessed as late apoptotic cells at 5 uM replaced with compound containing fresh culture medium every 12 hrs measured for 72 hrs by Annexin V FITC/propidium iodide staining based flow cytometric analysis (reference value: 1.35%); assay type: functional
[16] = system: A2780; assay: Induction of apoptosis in human A2780 cells assessed as viable cells at 10 uM replaced with compound containing fresh culture medium every 12 hrs measured for 72 hrs by Annexin V FITC/propidium iodide staining based flow cytometric analysis (reference value: 93.97%); assay type: functional; conditions: read-out: Activity
[17] = system: HeLa; assay: Binding affinity to human CRM1 C528S mutant transfected HeLa cells assessed as inhibition of nuclear export of cargoes at 10 uM incubated for 12 hrs by confocal microscope analysis; assay type: cell-based
[18] = system: A2780; assay: Induction of apoptosis in human A2780 cells assessed as necrotic cells at 1 uM replaced with compound containing fresh culture medium every 12 hrs measured for 72 hrs by Annexin V FITC/propidium iodide staining based flow cytometric analysis (reference value: 1%); assay type: functional
[19] = system: A2780; assay: Induction of apoptosis in human A2780 cells assessed as viable cells at 5 uM replaced with compound containing fresh culture medium every 12 hrs measured for 72 hrs by Annexin V FITC/propidium iodide staining based flow cytometric analysis (reference value: 93.97%); assay type: functional; conditions: read-out: Activity
[20] = system: HepG2; assay: Anti-cancer activity against human HepG2 cells assessed as inhibition of cell viability measured for 72 hrs replaced with compound containing fresh culture medium every 12 hrs by Sulforhodamine B assay; assay type: functional, cell-based
[21] = system: A2780; assay: Induction of apoptosis in human A2780 cells assessed as late apoptotic cells at 1 uM replaced with compound containing fresh culture medium every 12 hrs measured for 72 hrs by Annexin V FITC/propidium iodide staining based flow cytometric analysis (reference value: 1.35%); assay type: functional
[22] = system: A2780; assay: Induction of apoptosis in human A2780 cells assessed as late apoptotic cells at 10 uM replaced with compound containing fresh culture medium every 12 hrs measured for 72 hrs by Annexin V FITC/propidium iodide staining based flow cytometric analysis (reference value: 1.35%); assay type: functional
[23] = system: MGC-803; assay: Anti-cancer activity against human MGC-803 cells assessed as cell survival at 10 uM for 72 hrs replaced with compound containing fresh culture medium every 12 hrs by Sulforhodamine B assay; assay type: functional, cell-based
[24] = system: A549; assay: Induction of apoptosis in human A549 cells assessed as cell death at 1 to 10 uM treated for 12 hrs by Annexin V FITC/propidium iodide staining based flow cytometric analysis; assay type: functional; conditions: dose 1-10 µM
[25] = system: HeLa; assay: Inhibition of cellular nuclear export of endogenous cargo RanBP1 in human HeLa cells transfected with pmCherry-C1 plasmid at 1 to 10 uM incubated for 12 hrs by confocal microscope analysis; assay type: functional, cell-based; conditions: dose 1-10 µM
[26] = (§1) Inhibition of cellular nuclear export in human HeLa cells transfected with pmCherry-C1 Cargo plasmid assessed as cytoplasmic cargo level incubated for 12 hrs by confocal microscopic analysis; assay type: functional, cell-based
[27] = system: HeLa; assay: as §1; assay type: functional, cell-based; conditions: dose 1-10 µM
[28] = system: A549; assay: Anti-cancer activity against human A549 cells assessed as cell survival at 10 uM for 72 hrs replaced with compound containing fresh culture medium every 12 hrs by Sulforhodamine B assay; assay type: functional, cell-based
[29] = system: A2780; assay: Induction of apoptosis in human A2780 cells assessed as early apoptotic cells at 5 uM replaced with compound containing fresh culture medium every 12 hrs measured for 72 hrs by Annexin V FITC/propidium iodide staining based flow cytometric analysis (reference value: 3.67%); assay type: functional
[30] = target: T1, Exportin-1 (Homo sapiens, UniProt O14980); assay: Binding affinity to wild type human CRM1 transfected HeLa cells assessed as inhibition of nuclear export of cargoes at 10 uM incubated for 12 hrs by confocal microscope analysis; assay type: cell-based
[31] = system: HGC-27; assay: Anti-cancer activity against human HGC-27 cells assessed as cell survival at 10 uM for 72 hrs replaced with compound containing fresh culture medium every 12 hrs by Sulforhodamine B assay; assay type: functional, cell-based
[32] = system: A2780; assay: Induction of apoptosis in human A2780 cells assessed as viable cells at 1 uM replaced with compound containing fresh culture medium every 12 hrs measured for 72 hrs by Annexin V FITC/propidium iodide staining based flow cytometric analysis (reference value: 93.97%); assay type: functional; conditions: read-out: Activity
[33] = system: A2780; assay: Induction of apoptosis in human A2780 cells assessed as early apoptotic cells at 10 uM replaced with compound containing fresh culture medium every 12 hrs measured for 72 hrs by Annexin V FITC/propidium iodide staining based flow cytometric analysis (reference value: 3.67%); assay type: functional
[34] = system: HeLa; assay: Inhibition of cellular nuclear export of transfected cargo in human HeLa cells transfected with pmCherry-C1 plasmid at 1 to 10 uM incubated for 12 hrs by confocal microscope analysis; assay type: functional, cell-based; conditions: dose 1-10 µM
[35] = system: A2780; assay: Anti-cancer activity against human A2780 cells assessed as inhibition of cell viability measured for 72 hrs replaced with compound containing fresh culture medium every 12 hrs by Sulforhodamine B assay; assay type: functional, cell-based
[36] = system: HeLa; assay: Anti-cancer activity against human HeLa cells transfected with hCRM1-C528T/F572Y dual mutant assessed as cell survival at 10 uM for 72 hrs replaced with compound containing fresh culture medium every 12 hrs by Sulforhodamine B assay; assay type: functional, cell-based
[37] = system: A2780; assay: Anti-cancer activity against human A2780 cells assessed as fold increase Annexin V positive cells at 10 uM incubated for 2 hrs by EdU incorporation based assay; assay type: functional
[38] = system: HeLa; assay: Anti-cancer activity against human HeLa cells assessed as inhibition of cell viability measured for 72 hrs replaced with compound containing fresh culture medium every 12 hrs by Sulforhodamine B assay; assay type: functional, cell-based
[39] = system: A2780; assay: Induction of apoptosis in human A2780 cells assessed as early apoptotic cells at 1 uM replaced with compound containing fresh culture medium every 12 hrs measured for 72 hrs by Annexin V FITC/propidium iodide staining based flow cytometric analysis (reference value: 3.67%); assay type: functional
[40] = system: A549; assay: Anti-cancer activity against human A549 cells assessed as inhibition of cell viability measured for 72 hrs replaced with compound containing fresh culture medium every 12 hrs by Sulforhodamine B assay; assay type: functional, cell-based
[41] = target: T1, Exportin-1; assay: Binding affinity to Cy3 dye-labelled human CRM1 assessed as dissociation constant in absence of RanGTP at 10 uM incubated for 1 hr by micro-scale thermophoresis analysis
[42] = system: HeLa; assay: Cytotoxicity against human HeLa cells transfected with hCRM1-C528S-mutant assessed as cell viability measured for 72 hrs replaced with compound containing fresh culture medium every 12 hrs by Sulforhodamine B assay; assay type: functional, cell-based
[43] = target: T1, Exportin-1; assay: Inhibition of MBP-NES PKI binding to human CRM1 in presence RanGTP at 20 uM by pull down assay
[44] = system: HCT-116; assay: Anti-cancer activity against human HCT-116 cells assessed as cell survival at 10 uM for 72 hrs replaced with compound containing fresh culture medium every 12 hrs by Sulforhodamine B assay; assay type: functional, cell-based
[45] = system: PANC-1; assay: Anti-cancer activity against human PANC-1 cells assessed as cell survival at 10 uM for 72 hrs replaced with compound containing fresh culture medium every 12 hrs by Sulforhodamine B assay; assay type: functional, cell-based
[46] = system: HeLa; assay: Induction of apoptosis in human HeLa cells assessed as cell death at 1 to 10 uM treated for 12 hrs by Annexin V FITC/propidium iodide staining based flow cytometric analysis; assay type: functional; conditions: dose 1-10 µM
[47] = system: A2780; assay: Anti-cancer activity against human A2780 cells assessed as fold reduction in DNA synthesis rate at 10 uM incubated for 2 hrs by EdU incorporation based assay; assay type: functional
[48] = system: Huh-7; assay: Anti-cancer activity against human HuH-7 cells assessed as cell survival at 10 uM for 72 hrs replaced with compound containing fresh culture medium every 12 hrs by Sulforhodamine B assay; assay type: functional, cell-based

T1 sequence (O14980 whole entry): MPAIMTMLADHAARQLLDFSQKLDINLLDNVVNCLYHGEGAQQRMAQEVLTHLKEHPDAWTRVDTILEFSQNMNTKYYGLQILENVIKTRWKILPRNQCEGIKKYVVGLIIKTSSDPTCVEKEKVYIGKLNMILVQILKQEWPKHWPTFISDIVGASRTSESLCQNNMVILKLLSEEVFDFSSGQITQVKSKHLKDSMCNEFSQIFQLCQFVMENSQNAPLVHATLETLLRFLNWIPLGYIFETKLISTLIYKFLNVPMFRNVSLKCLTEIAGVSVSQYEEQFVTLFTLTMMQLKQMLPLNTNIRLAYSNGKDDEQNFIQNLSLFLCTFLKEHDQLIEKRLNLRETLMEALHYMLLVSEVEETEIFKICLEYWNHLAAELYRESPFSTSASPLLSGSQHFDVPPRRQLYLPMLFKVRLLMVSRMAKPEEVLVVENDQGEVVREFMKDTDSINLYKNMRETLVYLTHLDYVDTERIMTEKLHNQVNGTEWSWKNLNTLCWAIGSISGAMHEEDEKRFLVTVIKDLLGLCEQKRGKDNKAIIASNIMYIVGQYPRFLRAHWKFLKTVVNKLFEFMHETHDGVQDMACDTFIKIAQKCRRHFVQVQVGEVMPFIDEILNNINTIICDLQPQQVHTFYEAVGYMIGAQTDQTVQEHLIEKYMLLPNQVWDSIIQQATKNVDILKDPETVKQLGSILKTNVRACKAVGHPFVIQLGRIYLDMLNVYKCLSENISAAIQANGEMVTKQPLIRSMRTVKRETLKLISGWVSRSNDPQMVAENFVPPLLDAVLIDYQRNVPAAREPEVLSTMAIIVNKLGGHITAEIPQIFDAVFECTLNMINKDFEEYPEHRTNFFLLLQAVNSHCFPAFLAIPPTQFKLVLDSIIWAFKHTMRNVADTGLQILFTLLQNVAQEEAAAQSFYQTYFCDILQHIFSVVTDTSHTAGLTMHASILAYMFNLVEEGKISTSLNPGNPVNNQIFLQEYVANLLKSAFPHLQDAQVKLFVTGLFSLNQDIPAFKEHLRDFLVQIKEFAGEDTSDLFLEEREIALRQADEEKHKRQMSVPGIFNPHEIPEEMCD

CC(C)CCNc1cc(C[S+]([O-])c2cc(C(F)(F)F)cc(C(F)(F)F)c2)ccn1 (stereo unspecified)
inhibition [1]: inactive
Activity [2]: inactive

[O-][S+](/C=C/CBr)c1cc(C(F)(F)F)cc(C(F)(F)F)c1 (stereo unspecified)
inhibition [1]: Active
inhibition [3]: Active
Activity [2]: inactive

CC(C)CCNC/C=C/Sc1cc(C(F)(F)F)cc(C(F)(F)F)c1
Activity [2]: inactive

CC(C)CCNC/C=C/[S+]([O-])c1cc(C(F)(F)F)cc(C(F)(F)F)c1 (stereo unspecified)
inhibition [4]: inactive
Activity [5]: 4.19%
inhibition [1]: Active
IC50 [6]: 2 µM
Activity [7]: 1.88%
Activity [8]: Active
Activity [9]: Dose-Dependent Effect
Activity [10]: Active
Activity [11]: Dose-Dependent Effect
inhibition [12]: inactive
Activity [13]: Active
Activity [14]: Active
inhibition [3]: Active
Activity [15]: 3.29%
viability at 10 µM [16]: 64.4%
inhibition [17]: Active
Activity [18]: 1.1%
viability at 5 µM [19]: 79.2%
IC50 [20]: 2.9 µM
Activity [21]: 1.33%
Activity [22]: 7.14%
Activity [23]: Active
Activity [24]: Dose-Dependent Effect
inhibition [25]: Active
EC50 [26]: 3.2 µM
inhibition [27]: Dose-Dependent Effect
Activity [28]: Active
Activity [29]: 15.55%
inhibition [30]: Active
Activity [2]: Active
Activity [31]: Active
viability at 1 µM [32]: 92.8%
Activity [33]: 24.26%
inhibition [34]: Active
IC50 [35]: 5 µM
IC50 [36]: 2.6 µM
fold change (FC) [37]: 2
IC50 [38]: 3.8 µM
Activity [39]: 4.71%
IC50 [40]: 6.8 µM
Kd [41]: 0.024 µM
IC50 [42]: 5.9 µM
inhibition [43]: Active
Activity [44]: Active
Activity [45]: Active
Activity [46]: Dose-Dependent Effect
fold change (FC) [47]: 5
Activity [48]: Active

FC(F)(F)c1cc(SCc2ccnc(Cl)c2)cc(C(F)(F)F)c1
inhibition [1]: inactive
Activity [2]: inactive
